According to patent US20050256302A1, “Novel peptides having camp producing activity” (Japan Science and Technology Agency, priority 2002, published 2005):
Where a SMILES comes first, the peptide text is derived from it. Bridges are numbered along the chain shown (N, C = ends).

How the values were obtained:
[1] = test system: amyloride-sensitive Na/H co-transporter on LLC-PK1 cells; assay: Incorporation of sodium ion (22Na) in LLC-PK1 cells, with or without EIPA; assay type: cell-based, pig; conditions: 10 minutes
Method: A culture solution of LLC-PK1 cells was substituted with a Hanks' choline chloride solution, CRSP and sodium chloride having a predetermined radioactivity (^22Na) were added thereto so as to make the final concentration 0 M, 10^−8 M, 10^−7 M and 10^−6 M each, the cells were washed after 10 minutes so that ^22Na contained in the solution outside the cells was completely removed and radioactivity incorporated into the cells was measured by a gamma-counter. Similarly, a culture solution of LLC-PK1 cells was substituted with a Hanks' choline chloride solution, sodium chloride having a predetermined radioactivity (^22Na) as well as CRSP and an amyloride derivative (5-(N-ethyl-N-isopropyl)-amiloride) (EIPA) which is an Na/H co-transporter inhibitor were added thereto so as to make the final concentration 0 M CRSP+0 M EIPA, 10^−6 M CRSP+0 M EIPA, 10^−6 M CRSP+10^−8 M EIPA, 10^−6 M CRSP+10^−7 M EIPA, 10^−6 M CRSP+10^−6 M EIPA and 0 M CRSP+10^−6 M EIPA each. Cells were washed after 10 minutes so that ^22Na contained in the outer solution of the cells was completely removed and radioactivity incorporated into the cells was measured by a gamma-counter.
The results are shown in FIG. 5 (incorporation of sodium ion in the absence of EIPA), FIG. 6 (incorporation of sodium ion in the presence of EIPA) and FIG. 7 (incorporation of calcium ion). […]

[2] = Blood pressure of anesthetized rats; assay type: in vivo; conditions: rat, 16 nmol/kg from jugular vein
Method: CRSP corresponding to an amount of 16 nmol/kg dissolved in a physiological saline solution was administered at a time within a short period from jugular vein of rat under an anesthetized condition and calcium concentration in the plasma and blood pressure were measured. The results are shown in FIG. 13 (changes in calcium concentration in blood by administration of CRSP) and FIG. 14 (changes in blood pressure by administration of CRSP).
CRSP corresponding to the amount of 16 nmol/kg dissolved in a physiological saline solution was administered at a time within short period from […] of rat under an anesthetized condition.

[3] = target: T1, Pig calcitonin receptor (CTR) (Sus scrofa, UniProt P25117); assay: Incorporation of sodium ion (22Na) in OK cells expressing CTR; assay type: cell-based; conditions: CTR expressed in OK cells
T1 construct: expressed in transfected cells; host or cells: COS-7 (given as rhesus monkey renal cells), vector pcDNA 3.1
T1 sequence (P25117 30-498): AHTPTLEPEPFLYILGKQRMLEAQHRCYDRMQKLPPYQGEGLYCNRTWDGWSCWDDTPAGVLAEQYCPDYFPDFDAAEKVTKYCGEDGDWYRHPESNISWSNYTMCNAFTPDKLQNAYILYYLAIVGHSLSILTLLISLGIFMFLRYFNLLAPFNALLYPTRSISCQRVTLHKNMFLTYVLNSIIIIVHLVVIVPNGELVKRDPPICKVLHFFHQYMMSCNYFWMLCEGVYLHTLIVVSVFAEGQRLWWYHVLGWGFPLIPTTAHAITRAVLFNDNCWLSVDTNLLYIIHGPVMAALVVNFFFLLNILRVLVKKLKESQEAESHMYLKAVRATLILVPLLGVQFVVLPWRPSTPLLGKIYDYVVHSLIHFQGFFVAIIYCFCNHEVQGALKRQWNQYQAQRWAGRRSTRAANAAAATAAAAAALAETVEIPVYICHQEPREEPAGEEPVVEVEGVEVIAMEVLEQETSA
Method: (§1) Pig calcitonin receptor (CTR) was introduced into a mammalian expression vector pcDNA 3.1, expressed in rhesus monkey renal cells (COS-7) and production amount of cAMP by stimulation of CRSP was measured by radioimmunoassay. Similarly, CTR was expressed in opossum renal cells (OK cells) and production amount of cAMP by stimulation of CRSP was measured by radioimmunoassay while incorporation of sodium ion was measured by measuring the incorporation of sodium chloride having radioactivity (^22Na) by a gamma-counter. The results are shown in FIG. 10 (changes in cAMP productivity by CRSP stimulation in cells (COS-7) where calcitonin receptor was expressed in a genetic engineering manner), FIG. 11 (changes in cAMP productivity in opossum renal epithelial cells where pig calcitonin receptor (CTR) was expressed) and FIG. 12 (changes in incorporation of sodium ion in opossum renal epithelial cells where pig calcitonin receptor (CTR) was expressed).
(§2) Similarly, CTR was expressed in opossum renal cells (OK cells) and production amount of cAMP by CRSP stimulation was measured by radioimmunoassay while incorporation of sodium ion was measured by incorporation of radioactive sodium chloride (^22Na) using a gamma-counter.

[4] = target: T1, Pig calcitonin receptor (CTR); assay: cAMP production in opossum renal epithelial cells (OK cells) expressing CTR; assay type: cell-based; conditions: CTR expressed in OK cells
Method: as §1, §2

Compound: CSCC[C@H](NC(=O)[C@H](CCCCN)NC(=O)[C@@H](NC(=O)[C@@H]1CCCN1C(=O)[C@H](CC(C)C)NC(=O)[C@H](CC(C)C)NC(=O)[C@H](CC(N)=O)NC(=O)[C@H](CO)NC(=O)[C@H](CCCNC(=N)N)NC(=O)[C@@H](NC(=O)[C@H](CCSC)NC(=O)[C@H](CO)NC(=O)CNC(=O)[C@H](CO)NC(=O)[C@H](CCCNC(=N)N)NC(=O)[C@H](CO)NC(=O)[C@H](CC(C)C)NC(=O)[C@H](CC(C)C)NC(=O)CNC(=O)[C@@H](NC(=O)[C@H](CC(C)C)NC(=O)[C@H](CCCNC(=N)N)NC(=O)[C@H](Cc1c[nH]cn1)NC(=O)[C@@H](NC(=O)[C@H](CCSC)NC(=O)[C@@H]1CSSC[C@H](NC(=O)[C@@H](N)CO)C(=O)N[C@@H](CC(N)=O)C(=O)N[C@@H]([C@@H](C)O)C(=O)N[C@@H](C)C(=O)N[C@@H]([C@@H](C)O)C(=O)N1)[C@@H](C)O)C(C)C)C(C)C)[C@@H](C)O)C(=O)NCC(=O)N[C@@H](Cc1ccccc1)C(=O)N[C@@H](CCCCN)C(=O)N[C@H](C(=O)N[C@@H](Cc1ccccc1)C(=O)NCC(N)=O)C(C)C [CRSP] (H-SCNTATCMTHRLVGLLSRSGSMVRSNLLPTKMGFKVFG-NH2; disulfide 2-7)
- incorporation of sodium into cells ([1]; 10^-8 to 10^-6 M): promoted
- amyloride-sensitive Na/H co-transporter [1]: activated
- blood pressure [2]: no apparent change
- amyloride-sensitive Na/H co-transporter [3]: activated
- incorporation of sodium into cells [3]: promoted
- intracellular adenylyl cyclase activity [4]: increases
